The source of these data is patent US20220249347A1, “Composition and Method Containing Pea and Quinoa Natural Peptides And Niacinamide to Enhance Skin Glow, Radiance And Even Skin Tone” (TRI-K Industries, Inc., priority 2021, published 2022).

The assay deals with RHE-MEL 3D in vitro Caucasian skin model. Briefly: Skin pigmentation (ITA°) on melanized reconstructed human epidermis 3D model RHE-MEL. The assay is classed as cell-based. The following applies: 14 days study, treated daily for 10 days; Skin Care Composition at 1%, niacinamide at same use level; versus untreated. How it is done: The protocol for this study including the following. A melanized reconstructed human epidermis 3D Model (RHE-MEL) (in vitro Caucasian skin model) was used. The study duration was for 14 days. The RHE-MEL 3D in vitro skin tissues were allowed to grow in the first 4 days. The 3D skin tissues were treated every day with the materials for 10 days. The following samples were used: Untreated sample, Benchmark Niacinamide (at same use level as in Skin Care Composition), and Skin Care Composition used at 1%. Concentrations of materials were predetermined based on screening MTT assay. A C-Cube Dermoscope® (a high quality magnifying lens and a powerful lighting system used to evaluate pigmented skin lesions, and can diagnose melanoma), was used coupled with C-Cube clinical software for image analysis. Skin pigmentation was analyzed via high resolution pictures obtained from the C-Cube Dermoscope® coupled with an image analysis software. ITA° parameter was measured as degree of pigmentation of the skin directly on in vitro 3D RHE-MEL skin model. Statistical analysis was done using the Student T-test with a confidence level of (p<0.05).
In this 3D RHE-MEL in vitro Caucasian model skin measured was the intensity of the skin pigmentation degree by ITA° parameter (individual typological angle). […]

The structures appear in SMILES notation.

As for `NC(=O)c1cccnc1` [Niacinamide], the “ITA° (individual typology angle), degree of skin pigmentation” value is “increased the ITA°”.
